Changes are numbered by the printed parent chain.
Tests used:
Details in all cases: at 10 µM
[1] = system: T1, Receptor-type tyrosine-protein kinase FLT3 (Homo sapiens), P36888 [D835Y]; assay: (§1) Selectivity interaction (KinomeScan (DiscoverX)) EUB0000655a FLT3
T1 sequence (whole entry): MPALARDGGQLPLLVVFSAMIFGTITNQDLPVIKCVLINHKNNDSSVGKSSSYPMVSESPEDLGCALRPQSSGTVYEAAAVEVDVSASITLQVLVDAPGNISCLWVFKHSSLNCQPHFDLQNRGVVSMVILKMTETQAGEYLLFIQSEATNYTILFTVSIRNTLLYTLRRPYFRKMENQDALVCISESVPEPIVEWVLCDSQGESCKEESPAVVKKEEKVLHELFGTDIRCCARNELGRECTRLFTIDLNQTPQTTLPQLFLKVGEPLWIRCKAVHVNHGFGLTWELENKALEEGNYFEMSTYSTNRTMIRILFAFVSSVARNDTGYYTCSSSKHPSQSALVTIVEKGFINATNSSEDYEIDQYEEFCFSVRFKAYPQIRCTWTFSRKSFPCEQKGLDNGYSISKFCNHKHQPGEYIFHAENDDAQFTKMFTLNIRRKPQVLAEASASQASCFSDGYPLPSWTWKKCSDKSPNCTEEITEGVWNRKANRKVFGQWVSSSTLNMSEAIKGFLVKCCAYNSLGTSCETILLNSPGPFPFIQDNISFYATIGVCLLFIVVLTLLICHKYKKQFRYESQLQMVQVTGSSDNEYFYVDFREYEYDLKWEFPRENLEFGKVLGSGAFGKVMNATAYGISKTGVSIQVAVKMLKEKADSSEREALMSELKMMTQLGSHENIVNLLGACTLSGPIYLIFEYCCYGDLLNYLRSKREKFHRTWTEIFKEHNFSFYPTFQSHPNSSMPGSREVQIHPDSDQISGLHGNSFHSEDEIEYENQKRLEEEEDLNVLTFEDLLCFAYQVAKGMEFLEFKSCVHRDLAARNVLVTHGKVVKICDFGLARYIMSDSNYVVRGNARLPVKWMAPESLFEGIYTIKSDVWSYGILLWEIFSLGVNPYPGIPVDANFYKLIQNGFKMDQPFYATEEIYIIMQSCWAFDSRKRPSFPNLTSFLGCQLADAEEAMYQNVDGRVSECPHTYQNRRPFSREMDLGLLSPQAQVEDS

[2] = system: T2, Receptor-type tyrosine-protein kinase FLT3 (Homo sapiens), P36888 [N841I]; assay: as §1
T2 sequence (whole entry): T1 sequence (whole entry) with Y835D, N841I

[3] = system: T3, Receptor-type tyrosine-protein kinase FLT3 (Homo sapiens), P36888 [R834Q]; assay: as §1
T3 sequence (whole entry): T1 sequence (whole entry) with R834Q, Y835D

[4] = system: Receptor-type tyrosine-protein kinase FLT3 (Homo sapiens), P36888 [UNDEFINED MUTATION]; assay: as §1

## CN(C)CCOc1ccc(-c2nc(-c3ccncc3)c(-c3ccc4c(c3)CC/C4=N\O)[nH]2)cc1
[1]
  % of control: 64%
[2]
  % of control: 81%
[3]
  % of control: 100%
[4]
  % of control: 78%

Reference: ChEMBL document CHEMBL5465560, “Selectivity Literature for EUbOPEN Chemogenomic Library” (2024)
